Literature values as cited in US20090247593A1, “N-THIAZOL-2-YL-BENZAMIDE DERIVATIVES” (H. Lundbeck A/S, priority 2003, published 2009).
Read-outs that look alike come from different tables or passages of the source.

Tests used:
[1] = test system: mice; conditions: mouse forced swimming test
[2] = test system: mice; conditions: for total immobility time: mouse tail suspension test
[3] = test system: unilateral 6-OHDA lesioned mice and rats; conditions: elicited by a subthreshold dose of levodopa
[4] = test system: non-human primates treated with MPTP
[5] = test system: MPTP treated mice and 6-OHDA-lesioned rats
[6] = mice previously screened for having high immobility time

SMILES | immobility time [1] | immobility [2, 6] | total immobility time [2] | contralateral rotations [3] | further results
Nc1nc(Cl)nc2c1ncn2[C@@H]1O[C@H](CO)[C@@H](O)[C@H]1O [2-chloroadenosine] | increased immobility time |  |  |  | 
Nc1nc2c(cnn2CCc2ccccc2)c2nc(-c3ccco3)nn12 [SCH58261, 2-(2-furanyl)-7-(2-phenylethyl)-7H-pyrazolo[4,3-e][1,2,4]triazolo[1,5-c]pyrimidin-5-amine] |  | reduce immobility | reduced the total immobility time | enhance contralateral rotations | immobility ([2]; mice selectively bred for their helplessness): reduced immobility
CCn1c(=O)c2c(nc(/C=C/c3ccc(OC)c(OC)c3)n2C)n(CC)c1=O [KW-6002, 8-[(1E)-2-(3,4-dimethoxyphenyl)ethenyl]-1,3-diethyl-3,7-dihydro-7-methyl-1H-purine-2,6-dione] |  |  | reduced the total immobility time | enhance contralateral rotations | motor impairment ([4]; induced in non-human primates by MPTP): significantly improves motor impairment; dyskinesias ([4]; non-human primates, MPTP): without causing dyskinesias; functional loss of dopaminergic nerve terminals in the striatum [5]: prevented functional loss of dopaminergic nerve terminals in the striatum; gliosis normally induced around degenerating neurons [5]: prevented gliosis
Nc1nc(NCCc2ccc(O)cc2)nc2nc(-c3ccco3)nn12 [ZM241385, 4-(2-[7-amino-2-(2-furyl) [1,2,4]triazolo[2,3-a][1,3,5]triazin-5-ylamino]-ethyl)phenol] |  | reduce immobility |  |  | 
Nc1ncnc2c1ncn2[C@@H]1O[C@H](CO)[C@@H](O)[C@H]1O [adenosine] | increased immobility time |  |  |  | 
